PubChem BioAssay AID2060889 (Molecular Pharmacology Branch, DTP, NCI, 2025)

Tested on: LG0567-F671-PDC complex spheroids viability
Assay: Anticancer human tumor LG0567-F671-PDC patient-derived lung adenocarcinoma cell line growth inhibition [RAS]
Conditions: for viability, T/C: stronger effect = lower value
Outline: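 Agents were tested in combination matrices in half-log decrements from a top concentration at or near clinical Cmax (10 microM if undetermined). Targets were multi-cell spheroids of tumour lines plus HUVEC and MSC stromal cells.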
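Note: spheroids exposed to compound for seven days before readout.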
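Throughout, for IC50: luminescence signal used as a proxy for viable cells.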

For O=C(c1ccc(F)c(F)c1Nc1ccc(I)cc1F)N1CC(O)([C@@H]2CCCCN2)C1, the viability, T/C (compound 0.00316 µM) was 85.1% [middle of 4 runs], the viability, T/C (compound 0.01 µM) was 58.9% [middle of 4 runs] and the viability, T/C (compound 0.0316 µM) was 39.8% [middle of 4 runs]. The viability, T/C (compound 0.1 µM) was 24% [middle of 4 runs], the viability, T/C (compound 0.316 µM) was 11.1% [middle of 4 runs] and the viability, T/C (compound 1 µM) was 3.21% [middle of 4 runs]. The IC50 (curve of compound) was 17.3 nM [middle of 4 runs].
C=CC(=O)N1CCN(c2nc(OCC3CCCN3C)nc3c(F)c(-c4nc(N)cc(C)c4C(F)(F)F)c(Cl)cc23)C(C)C1 (configuration not stated) was tested, and the viability, T/C (compound 0.00316 µM) was 16.6% [middle of 12 runs], the viability, T/C (compound 0.01 µM) was 14.1% [middle of 12 runs] and the viability, T/C (compound 0.0316 µM) was 13.4% [middle of 12 runs]. The viability, T/C (compound 0.1 µM) was 13.5% [middle of 12 runs], the viability, T/C (compound 0.316 µM) was 13.8% [middle of 12 runs] and the viability, T/C (compound 1 µM) was 15.5% [middle of 12 runs]. The IC50 (compound alone, run of 09/09/2024) was under 3.16 nM and the IC50 (curve of compound) was under 3.16 nM.
With CC1(O)CCCC1n1c(=O)c(C(F)F)cc2cnc(NC3CCN(S(C)(=O)=O)CC3)nc21 (configuration not stated) + CCn1c(-c2cc(N3CCN(C)CC3)cnc2C(C)OC)c2c3cc(ccc31)-c1csc(n1)CC(NC(=O)C1CC1C)C(=O)N1CCCC(N1)C(=O)OCC(C)(C)C2 the IC50 (curve of first compound, second compound 0.000949 µM) was under 31.6 nM, the IC50 (curve of first compound, second compound 0.003 µM) was under 31.6 nM and the IC50 (curve of first compound, second compound 0.00949 µM) was under 31.6 nM. It also gave an IC50 (curve of first compound, second compound 0.03 µM) of under 31.6 nM, an IC50 (curve of first compound, second compound 0.0949 µM) of under 31.6 nM and an IC50 (curve of first compound, second compound 0.3 µM) of under 31.6 nM. It also gave a viability, T/C (second compound 0.000949 µM, first compound 0.0316 µM) of 29.6%, a viability, T/C (second compound 0.000949 µM, first compound 0.1 µM) of 27.7% and a viability, T/C (second compound 0.000949 µM, first compound 0.316 µM) of 34.2%. For the same compound, the viability, T/C (second compound 0.000949 µM, first compound 1 µM) was 35.2%, the viability, T/C (second compound 0.000949 µM, first compound 3.16 µM) was 36.3% and the viability, T/C (second compound 0.000949 µM, first compound 10 µM) was 24.7%. The viability, T/C (second compound 0.003 µM, first compound 0.0316 µM) was 11.8%, the viability, T/C (second compound 0.003 µM, first compound 0.1 µM) was 15.6% and the viability, T/C (second compound 0.003 µM, first compound 0.316 µM) was 16.7%. The viability, T/C (second compound 0.003 µM, first compound 1 µM) was 17.6%, the viability, T/C (second compound 0.003 µM, first compound 3.16 µM) was 18.6% and the viability, T/C (second compound 0.003 µM, first compound 10 µM) was 14.1%. The viability, T/C (second compound 0.00949 µM, first compound 0.0316 µM) was 7.99%, the viability, T/C (second compound 0.00949 µM, first compound 0.1 µM) was 8.49% and the viability, T/C (second compound 0.00949 µM, first compound 0.316 µM) was 10.3%. The viability, T/C (second compound 0.00949 µM, first compound 1 µM) was 10.8%, the viability, T/C (second compound 0.00949 µM, first compound 3.16 µM) was 11.8% and the viability, T/C (second compound 0.00949 µM, first compound 10 µM) was 8.83%. The viability, T/C (second compound 0.03 µM, first compound 0.0316 µM) was 4.53%, the viability, T/C (second compound 0.03 µM, first compound 0.1 µM) was 5.49% and the viability, T/C (second compound 0.03 µM, first compound 0.316 µM) was 6.91%. For the same compound, the viability, T/C (second compound 0.03 µM, first compound 1 µM) was 7.53%, the viability, T/C (second compound 0.03 µM, first compound 3.16 µM) was 8.07% and the viability, T/C (second compound 0.03 µM, first compound 10 µM) was 5.96%. The viability, T/C (second compound 0.0949 µM, first compound 0.0316 µM) was 4.61%, the viability, T/C (second compound 0.0949 µM, first compound 0.1 µM) was 4.51% and the viability, T/C (second compound 0.0949 µM, first compound 0.316 µM) was 5.52%. The viability, T/C (second compound 0.0949 µM, first compound 1 µM) was 6.15%, the viability, T/C (second compound 0.0949 µM, first compound 3.16 µM) was 6.66% and the viability, T/C (second compound 0.0949 µM, first compound 10 µM) was 5%. For the same compound, the viability, T/C (second compound 0.3 µM, first compound 0.0316 µM) was 3.25%, the viability, T/C (second compound 0.3 µM, first compound 0.1 µM) was 3.76% and the viability, T/C (second compound 0.3 µM, first compound 0.316 µM) was 4.31%. It also gave a viability, T/C (second compound 0.3 µM, first compound 1 µM) of 5.52%, a viability, T/C (second compound 0.3 µM, first compound 3.16 µM) of 5.43% and a viability, T/C (second compound 0.3 µM, first compound 10 µM) of 4.68%.
